Starred links: 1 amine or outer side, 2 acyl side, 3 side chain; linkers in the order of their positions; H or OH if unused. Positions of bridges follow the written chain, without caps; N, C: chain ends. Non-standard residues stand in square brackets, D forms with d. Residues, ends and D or L forms follow the SMILES beside them. Chains are numbered I, II in the order given. Actinocin(9to1) = Cc1c2oc3c(C)ccc(C(=O)[*:1])c3nc-2c(C(=O)[*:2])c(N)c1=O; NMeV = CN[C@H](C(=O)O)C(C)C; Sar = CNCC(=O)O
Key:
[1] = species on record: Homo sapiens; assay: Liver toxicity in human assessed as induction of drug-induced liver injury by measuring severity class index
[2] = species on record: Homo sapiens; assay: Liver toxicity in human assessed as induction of drug-induced liver injury by measuring verified drug-induced liver injury concern status
For DILI severity class in this document: key of the grades not given here.

SMILES	DILI_severity_class [1]	DILI_Concern [2]
O=C1CCc2cc(OCCCCc3nnnn3C3CCCCC3)ccc2N1 [CILOSTAZOL]	5	Ambiguous-Dili-Concern
CN/C(=N/CCSCc1nc[nH]c1C)NC#N [CIMETIDINE]	2	Less-Dili-Concern
O=C(O)c1cc(-c2ccccc2)nc2ccccc12 [CINCHOPHEN]	8	Most-Dili-Concern
O=C(O)c1cn(C2CC2)c2cc(N3CCNCC3)c(F)cc2c1=O [CIPROFLOXACIN]	7	Most-Dili-Concern
COc1ccc(C[C@@H]2c3cc(OC)c(OC)cc3CC[N@+]2(C)CCC(=O)OCCCCCOC(=O)CC[N@@+]2(C)CCc3cc(OC)c(OC)cc3[C@H]2Cc2ccc(OC)c(OC)c2)cc1OC.O=S(=O)([O-])c1ccccc1.O=S(=O)([O-])c1ccccc1 [CISATRACURIUM BESYLATE]	0	No-Dili-Concern
CN(C)CCCC1(c2ccc(F)cc2)OCc2cc(C#N)ccc21 (stereo unspecified) [CITALOPRAM]	7	Less-Dili-Concern
Nc1nc(Cl)nc2c1ncn2[C@H]1C[C@H](O)[C@@H](CO)O1 [CLADRIBINE]	3	Ambiguous-Dili-Concern
CC[C@H]1OC(=O)[C@H](C)[C@@H](O[C@H]2C[C@@](C)(OC)[C@@H](O)[C@H](C)O2)[C@H](C)[C@@H](O[C@@H]2O[C@H](C)C[C@H](N(C)C)[C@H]2O)[C@](C)(OC)C[C@@H](C)C(=O)[C@H](C)[C@@H](O)[C@]1(C)O [CLARITHROMYCIN]	8	Most-Dili-Concern
CN1CCC[C@@H]1CCO[C@](C)(c1ccccc1)c1ccc(Cl)cc1 [CLEMASTINE]	0	No-Dili-Concern
CCCC(=O)OCOC(=O)C1=C(C)NC(C)=C(C(=O)OC)C1c1cccc(Cl)c1Cl (stereo unspecified) [CLEVIDIPINE]	0	No-Dili-Concern
CCC[C@@H]1C[C@@H](C(=O)N[C@@H]([C@H]2O[C@H](SC)[C@H](OP(=O)(O)O)[C@@H](O)[C@H]2O)[C@H](C)Cl)N(C)C1 [CLINDAMYCIN PHOSPHATE]	3	Ambiguous-Dili-Concern
CCC[C@@H]1C[C@@H](C(=O)N[C@@H]([C@H]2O[C@H](SC)[C@H](O)[C@@H](O)[C@H]2O)[C@H](C)Cl)N(C)C1 [CLINDAMYCIN]	3	Less-Dili-Concern
Nc1nc(Cl)nc2c1ncn2[C@@H]1O[C@H](CO)[C@@H](O)[C@@H]1F [CLOFARABINE]	8	Ambiguous-Dili-Concern
CCOC(=O)C(C)(C)Oc1ccc(Cl)cc1 [CLOFIBRATE]	3	Less-Dili-Concern
CN(C)CCCC1c2ccccc2Nc2ccc(Cl)cc21 (stereo unspecified) [CLOMACRAN]	8	Most-Dili-Concern
COc1ccc2c(C(=O)c3ccc(Cl)cc3)c(C)n(CC(=O)O)c2c1 [CLOMETACIN]	8	Most-Dili-Concern
CCN(CC)CCOc1ccc(C(=C(Cl)c2ccccc2)c2ccccc2)cc1 [CLOMIPHENE]	3	Less-Dili-Concern
CN(C)CCCN1c2ccccc2CCc2ccc(Cl)cc21 [CLOMIPRAMINE]	8	Most-Dili-Concern
O=C1CN=C(c2ccccc2Cl)c2cc([N+](=O)[O-])ccc2N1 [CLONAZEPAM]	3	Less-Dili-Concern
Clc1cccc(Cl)c1N=C1NCCN1 [CLONIDINE]	3	Ambiguous-Dili-Concern
COC(=O)[C@H](c1ccccc1Cl)N1CCc2sccc2C1 [CLOPIDOGREL]	7	Less-Dili-Concern
O=C(O)C1N=C(c2ccccc2)c2cc(Cl)ccc2NC1=O (stereo unspecified) [CLORAZEPIC ACID]	3	Ambiguous-Dili-Concern
Clc1ccccc1C(c1ccccc1)(c1ccccc1)n1ccnc1 [CLOTRIMAZOLE]	3	Less-Dili-Concern
Cc1onc(-c2ccccc2Cl)c1C(=O)N[C@@H]1C(=O)N2[C@@H]1SC(C)(C)[C@@H]2C(=O)O [CLOXACILLIN]	3	Less-Dili-Concern

SMILES	DILI_severity_class [1]	DILI_Concern [2]
CN1CCN(C2=Nc3cc(Cl)ccc3Nc3ccccc32)CC1 [CLOZAPINE]	5	Most-Dili-Concern
COc1ccc2c3c1O[C@H]1[C@@H](O)C=C[C@H]4[C@@H](C2)N(C)CC[C@@]341 [CODEINE]	0	No-Dili-Concern
COc1cc2c(c(OC)c1OC)-c1ccc(OC)c(=O)cc1[C@@H](NC(C)=O)CC2 [COLCHICINE]	6	Ambiguous-Dili-Concern
Cc1nc2c([nH]1)-c1ccccc1N(C(=O)c1ccc(NC(=O)c3ccccc3-c3ccccc3)cc1)CC2 [CONIVAPTAN]	0	No-Dili-Concern
CC(=O)OCC(=O)[C@@]1(O)CC[C@H]2[C@@H]3CCC4=CC(=O)CC[C@]4(C)[C@H]3C(=O)C[C@@]21C [CORTISONE ACETATE]	0	No-Dili-Concern
CN(C)CCC=C1c2ccccc2C=Cc2ccccc21 [CYCLOBENZAPRINE]	5	Less-Dili-Concern
CC(=O)Oc1ccc(C(=C2CCCCC2)c2ccc(OC(C)=O)cc2)cc1 [CYCLOFENIL]	8	Most-Dili-Concern
O=P1(N(CCCl)CCCl)NCCCO1 (stereo unspecified) [CYCLOPHOSPHAMIDE ANHYDROUS]	5	Less-Dili-Concern
N[C@@H]1CON=C1O [CYCLOSERINE]	3	Ambiguous-Dili-Concern
CN1CCC(=C2c3ccccc3C=Cc3ccccc32)CC1 [CYPROHEPTADINE]	7	Less-Dili-Concern
NCCS [CYSTEAMINE]	3	Ambiguous-Dili-Concern
N[C@@H](CS)C(=O)O [CYSTEINE]	3	Ambiguous-Dili-Concern
Nc1ccn([C@@H]2O[C@H](CO)[C@@H](O)[C@@H]2O)c(=O)n1 [CYTARABINE]	3	Most-Dili-Concern
CN(C)/N=N/c1[nH]cnc1C(N)=O [DACARBAZINE]	6	Most-Dili-Concern
Cc1c2oc3c(C)ccc(C(=O)N[C@@H]4C(=O)N[C@H](C(C)C)C(=O)N5CCC[C@H]5C(=O)N(C)CC(=O)N(C)[C@@H](C(C)C)C(=O)O[C@@H]4C)c3nc-2c(C(=O)N[C@@H]2C(=O)N[C@H](C(C)C)C(=O)N3CCC[C@H]3C(=O)N(C)CC(=O)N(C)[C@@H](C(C)C)C(=O)O[C@@H]2C)c(N)c1=O [DACTINOMYCIN] (I: T[dV]P[Sar][NMeV] / II: T[dV]P[Sar][NMeV]; ester I:1-I:C, II:1-II:C; linker I:N-II:N via Actinocin(9to1))	8	Most-Dili-Concern
C#C[C@]1(O)CC[C@H]2[C@@H]3CCC4=Cc5oncc5C[C@]4(C)[C@H]3CC[C@@]21C [DANAZOL]	8	Most-Dili-Concern
O=C1CN(/N=C/c2ccc(-c3ccc([N+](=O)[O-])cc3)o2)C(O)=N1 [DANTROLENE]	8	Most-Dili-Concern
Nc1ccc(S(=O)(=O)c2ccc(N)cc2)cc1 [DAPSONE]	3	Less-Dili-Concern
CCCCCCCCCC(=O)N[C@@H](Cc1c[nH]c2ccccc12)C(=O)N[C@H](CC(N)=O)C(=O)N[C@@H](CC(=O)O)C(=O)N[C@@H]1C(=O)NCC(=O)N[C@@H](CCCN)C(=O)N[C@@H](CC(=O)O)C(=O)N[C@H](C)C(=O)N[C@@H](CC(=O)O)C(=O)NCC(=O)N[C@H](CO)C(=O)N[C@@H]([C@H](C)CC(=O)O)C(=O)N[C@@H](CC(=O)c2ccccc2N)C(=O)O[C@@H]1C [DAPTOMYCIN]	5	Less-Dili-Concern
NC(=O)C(c1ccccc1)(c1ccccc1)[C@@H]1CCN(CCc2ccc3c(c2)CCO3)C1 [DARIFENACIN]	0	No-Dili-Concern
Cc1nc(Nc2ncc(C(=O)Nc3c(C)cccc3Cl)s2)cc(N2CCN(CCO)CC2)n1.O [DASATINIB]	4	Less-Dili-Concern
COc1cccc2c1C(=O)c1c(O)c3c(c(O)c1C2=O)C[C@@](O)(C(C)=O)C[C@@H]3O[C@H]1C[C@H](N)[C@H](O)[C@H](C)O1 [DAUNORUBICIN]	0	No-Dili-Concern
Nc1ncn([C@H]2C[C@H](O)[C@@H](CO)O2)c(=O)n1 [DECITABINE]	4	Ambiguous-Dili-Concern
O=C(O)c1ccc(-n2nc(-c3ccccc3O)nc2-c2ccccc2O)cc1 [DEFERASIROX]	7	Most-Dili-Concern
